# Experimental data published in PubChem BioAssay AID1322 (NMMLSC, 2008).
# Calls of active or inactive are those of the source. No rule for the calls is given here.
# Target: Bcl-2-like protein 1 (Homo sapiens) (UniProt Q07817)
# Experiment: Bcl-XL binding to Bim peptide disruption – biochemical, multiplexed, bead flow cytometry, human Bcl-XL, dose response (AID 1322); as to inhibition: test concentration not given here
# Settings: Bead-based flow cytometry, MCF; for inhibition: active compounds read high
# Sequence of Bcl-2-like protein 1 (Homo sapiens) (Q07817 whole entry, looked up): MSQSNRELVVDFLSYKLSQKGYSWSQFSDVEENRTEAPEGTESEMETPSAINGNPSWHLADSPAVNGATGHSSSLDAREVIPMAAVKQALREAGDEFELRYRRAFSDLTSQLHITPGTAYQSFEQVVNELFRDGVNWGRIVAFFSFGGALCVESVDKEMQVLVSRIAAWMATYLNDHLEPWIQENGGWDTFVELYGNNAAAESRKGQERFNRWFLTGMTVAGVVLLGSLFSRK
SMILES,inhibition,further results
CCc1ccc(NC(=O)Cc2ccc(OC)cc2)cc1,,outcome: inactive
COc1ccc2nc(-c3ccco3)c(-c3ccco3)nc2c1,inactive,
O=C(/C=C/c1ccc(-c2ccccc2)o1)c1ccccc1,inactive,
Cc1cc(C)c[n+](-c2nc3ccccc3nc2C(=C=[N-])C#N)c1,inactive,
O=C1c2ccccc2C(=O)c2cc(S(=O)(=O)Nc3ccccc3)ccc21,,outcome: inactive
N#Cc1ccc(N=c2ssnc2Cl)cc1,inactive,
Clc1ccc(N=c2ssnc2Cl)nc1,,outcome: inactive
COc1cc(/C=N/NC(=O)c2ccc([N+](=O)[O-])cc2Cl)cc(Br)c1O,inactive,
COc1c(F)c(F)c(C(=O)Nc2ccccc2N2CCN(C(=O)C(C)C)CC2)c(F)c1F,inactive,
CC(C)(C)OC(=O)N1CCN(C(=O)[C@H](Cc2ccc(O)cc2)n2cc(CCO)nn2)CC1,inactive,
CN1N=C(C(=O)N2CCCC(C(=O)c3cccc(C(F)(F)F)c3)C2)CCC1=O (centres undefined),inactive,
Clc1ccc2c(N/N=C/c3ccccc3Br)ccnc2c1,inactive,
CCc1nn2cc(C(=O)c3cc(C)ccc3O)cnc2c1-c1ccc(F)cc1,inactive,
CCNC(=S)Nc1ccc(OCC)cc1,inactive,
O=C(NC1=C(Nc2ccc(Cl)cc2)C(=O)c2ccccc2C1=O)c1ccccc1,inactive,
CN(C)S(=O)(=O)N(CC(=O)Nc1ccccc1C(F)(F)F)c1ccccc1,inactive,
COC(=O)c1c(C(=O)OC)c2cccc3cc(-c4ccccc4)c4ccc1c4n32,inactive,
O=[N+]([O-])c1c(NCCO)cc(Sc2nc3ccccc3s2)c2nonc12,inactive,
Cc1ccc(-c2cc(C(=O)Nc3cc(C(=O)O)ccc3C)c3ccccc3n2)cc1,,outcome: inactive
Fc1ccc(Cn2nnnc2C(c2ccc(Cl)cc2)N2CCSCC2)cc1 (centres undefined),inactive,
O=C1NC(=O)C(=Cc2ccc(-c3cc(Cl)ccc3[N+](=O)[O-])o2)C(=O)N1,,outcome: inactive
CCCn1c(C)cc(-c2csc(N)n2)c1C,inactive,
COc1ccc(C(=O)Nc2ccc(NC(=O)c3cccs3)cc2)cc1Cl,inactive,
O=C(O)CC1S/C(=N/N=C/C=C/c2ccccc2[N+](=O)[O-])NC1=O (centres undefined),,outcome: inactive
CNc1nc2ccccc2n1/N=C/c1cccc(OC)c1OC,inactive,
CCn1c(C)c(/C=N/Nc2nc3ccccc3s2)c2ccccc21,inactive,

SMILES,inhibition,further results
O=C(Cn1cncc1-c1ccc([N+](=O)[O-])cc1)Nc1ccccc1F,inactive,
COc1cc(C2Nc3cccc4cccc(c34)N2)cc(OC)c1O,inactive,
Cc1ccc(Nc2nc(CSc3nnc(-c4cccnc4)n3-c3ccccc3C)cs2)cc1,inactive,
COc1ccc(Cc2c(O)nc(SC)n(C(C)=O)c2=O)cc1,inactive,
COc1ccc(N2C(=O)C(Cl)=C(Oc3cccc(OC)c3)C2=O)cc1,inactive,
CN(C)CCNC(=O)C(=O)C1C(=O)Nc2ccccc21 (centres undefined),,outcome: inactive
CC(C)c1ccc(C2CC(c3ccc(Br)cc3)=NN2C(N)=S)cc1 (centres undefined),,outcome: inactive
c1ccc(-c2nnc(OCCN3CCOCC3)c3ccccc23)cc1,inactive,
Cn1c(=O)[nH]c(=O)c2c1nc(N1CCOCC1)n2CCSc1nc2ccccc2[nH]1,inactive,
Cc1ccnc(NS(=O)(=O)c2ccc(NS(=O)(=O)c3cccs3)cc2)n1,inactive,
CCN(CC)c1ccc(-c2nn3c(-c4n[nH]c5c4CCC5)nnc3s2)cc1,inactive,
CCOC(=O)c1ccc(NC(=O)CSCCC(=O)O)cc1,inactive,
COc1ccc(NC(=O)/C(C#N)=C/c2c(C)nn(-c3ccc(F)cc3)c2Cl)cc1Cl,inactive,
CCNC(=S)Nc1cc(OCC)c(NC(=O)c2cccs2)cc1OCC,inactive,
CNc1ccc(Br)cc(C(=O)/C=C/c2cccc(OC)c2)c1=O,inactive,
CCN(CC)c1ccc(-c2nn3c(-c4ccccc4OC)nnc3s2)cc1,inactive,
Cc1nc2scc(-c3ccccc3)c2c(=O)n1N=C1C=CC(=O)C=C1,inactive,
COP(=O)(CC(=O)O)c1ccccc1 (centres undefined),inactive,
COc1ccc(N2CC(C(=O)Nc3nnc(SCC(=O)c4ccccc4)s3)CC2=O)cc1 (centres undefined),inactive,
COC(=O)c1sc(NC(=O)c2ccc(Cn3cc(Cl)cn3)o2)c(C#N)c1C,inactive,
CCCCOc1ccc(Cc2c(Cl)nc(SC)nc2N2CCOCC2)cc1,inactive,
CC(=O)Nc1ccc(-n2cc(-c3ccccc3)[nH]c2=S)cc1,inactive,
OC(COc1ccc2ccccc2c1)CN1CCCC1 (centres undefined),inactive,
CCN(CC)c1ccc(NC(=O)COc2ccccc2C#N)cc1S(=O)(=O)Nc1ccccc1OC,inactive,
COc1ccc(C2CN(C)CC2C(=O)c2ccc(F)cc2)cc1Cl (centres undefined),,outcome: inactive
COc1ccc(C(=O)/C=C/c2cc(OC)c(O)c(OC)c2)c(F)c1,inactive,

SMILES,inhibition,further results
CC(C)CCN1CCN(Cc2cccc3cccnc23)CC1CCO (centres undefined),,outcome: inactive
O=C(C1=NN(c2ccccc2)C2C(=O)N(c3ccccc3)C(=O)C12)c1ccccc1 (centres undefined),inactive,
CCOc1cccc(CNc2ccc(O)cc2)c1OCc1ccccc1Cl,inactive,
COc1cc2[nH]c(=S)nc(NCCCOC(C)C)c2cc1OC,inactive,
CCN(CC)c1ccc(NC(=O)c2ccccc2Br)cc1S(=O)(=O)Nc1ccccc1OC,inactive,
O=c1[nH]c2ccc(N=Cc3c(O)ccc4cc(Br)ccc34)cc2[nH]1,inactive,
C=CS(=O)(=O)c1sc(Cl)c(N2CCOCC2)c1[N+](=O)[O-],,outcome: inactive
CCOC(=O)C1CCN(C(=O)Nc2ccc3nc(-c4ccco4)c(-c4ccco4)nc3c2)CC1,inactive,
Oc1ccc(NCc2ccccc2OCc2ccccc2)cc1,,outcome: inactive
c1ccc(-c2nc(N3CCOCC3)s[n+]2-c2ccccc2)cc1,inactive,
CN(Cc1cccs1)C(=O)CCc1c[nH]c2ccccc12,,outcome: inactive
O=C(CSc1nnc(Cc2ccccc2)o1)NCc1ccco1,inactive,
COc1cccc(/C=N/Nc2nn3cnnc3c3ccccc23)c1,,EC50: inactive
CC(C)c1ccc(/C=N/NC(=O)c2ccccc2Cl)cc1,inactive,
COc1ccc(NC(=O)c2ccc3c(c2)NC(=O)CS3)cc1S(=O)(=O)Nc1ccc(Br)cc1,inactive,
CCOc1cc(/C=N/NC(=O)c2cccs2)cc([N+](=O)[O-])c1O,inactive,
CC(C)NS(=O)(=O)c1ccc(OCC(=O)Nc2ccc(F)cc2)cc1,inactive,
CN(C)c1ccc(C=C2C(=O)NC(=O)NC2=O)cc1[N+](=O)[O-],inactive,
Cc1cc2nc(/C(C#N)=C/c3ccncc3)[nH]c2cc1C,inactive,
O=C(CCCN1C(=O)c2cccc3cccc(c23)C1=O)N1CCN(c2ccccn2)CC1,,outcome: inactive
CCCC(=O)OCCNc1cc(Sc2nccn2C)c2nonc2c1[N+](=O)[O-],inactive,
C/C(=N\NC(=O)Cc1cccn1C)c1ccc2ccccc2c1,inactive,
Cc1ccc(/C=N/N(C)C2=NS(=O)(=O)c3ccccc32)o1,inactive,
C/C(=N/NC(=O)c1cc(O)c(O)c(O)c1)c1ccc([N+](=O)[O-])cc1,,outcome: inactive
Cc1cc(-c2csc(N)n2)c(C)n1CCC(C)C,inactive,
Cc1c(N2C(=O)c3ccc4c5c(ccc(c35)C2=O)CC4)c(=O)n(-c2ccccc2)n1C,inactive,

SMILES,inhibition,further results
Cn1cc(CN2C[C@]3(C)C[C@H]2CC(C)(C)C3)c(-c2ccc3c(c2)OCCO3)n1,,outcome: inactive
CCN1CCN(c2cc(C)c3cc(NC(=S)N4CCCCC4)ccc3n2)CC1,inactive,
COc1ccc(OC)c(NC(=O)CCCN2C(=S)NC(C)(C)CC2C)c1 (centres undefined),,outcome: inactive
O=C(Nc1cccc(Cl)c1)Nc1ccc(Cl)cn1,inactive,
Cn1c(CCNC(=O)C2CCCCC2)nc2cc(NC(=O)c3cccs3)ccc21,,outcome: inactive
S=C(NCCc1ccccc1)NCCc1ccccc1,inactive,
CCn1c(C)nc2cc(C(=O)N/N=C/c3ccc(O)c(O)c3O)ccc21,inactive,
CCCCC(C(=O)OCC)C(N)Cc1ccc(F)cc1 (centres undefined),,outcome: inactive
COc1ccc(C2CC(=O)C3=C(C2)Nc2ccccc2NC3c2coc3ccccc3c2=O)cc1OC (centres undefined),inactive,
COc1ccc(C2=Nn3c(nnc3-c3ccccn3)SC2)cc1OC,inactive,
C/C(=N\NC(=O)Cn1nc(C)c([N+](=O)[O-])c1C)c1ccc(O)cc1,inactive,
O=S1(=O)N=C(N(CCO)/N=C/c2ccccc2)c2ccccc21,inactive,
COc1cc(NC(=S)NC(=O)c2cc(C)cc(C)c2)ccc1NC(=O)c1cccs1,inactive,
CC1CC2=C(NC(=S)NC2c2ccccc2F)/C(=C/c2ccccc2F)C1 (centres undefined),,outcome: inactive
O=C(O)c1ccccc1NSc1ccccc1[N+](=O)[O-],,outcome: inactive
COc1cc(C=Nc2cccc(C)c2)c(O)c([N+](=O)[O-])c1,inactive,
O=C1CCc2cc(S(=O)(=O)NCCCC(=O)N3CCN(Cc4ccc5c(c4)OCO5)CC3)ccc2N1,,outcome: inactive
COc1ccc(C)cc1Nc1ccc(C(=O)O)cc1[N+](=O)[O-],,outcome: inactive
Cc1ccccc1-n1c(SCc2cccc(F)c2)nc2[nH]ncc2c1=O,,outcome: inactive
COc1cc(CNc2ccc3[nH]c(=O)[nH]c3c2)cc(Br)c1OCC(=O)NC(C)(C)C,inactive,
CC1(C)CC(=O)C(C=NCCN2CCN(CCc3ccccc3)CC2)=C(O)C1,inactive,
CCN=c1scc(C)n1/N=C/c1ccc(O)c(O)c1O,inactive,
COc1cc(CNc2ccc(N3CCCC3)cc2)cc(Cl)c1OC,inactive,
NC(=O)c1c(NC(=O)C2CCCO2)sc2c1CCCCC2 (centres undefined),inactive,
CC(/C=C/C(=O)c1ccc(C)cc1)=C\c1ccccc1,inactive,
Cc1ccc(-c2ccc(CCC(=O)O)n2NC(=O)c2cccs2)cc1,inactive,
